# In publication PMC9950431, “A bivalent remipede toxin promotes calcium release via ryanodine receptor activation” (Nature Communications, 2023):
# Entries after “also recorded” stand apart in the source; their conditions may differ.
# Columns and labels:
# RyR1 = biological target: T1, RyR1 (Oryctolagus cuniculus, UniProt P11716); experiment: Washout (reversibility/avidity) single channel experiments, RyR1; format: biochemical, New Zealand white rabbit (skeletal SR)
# T1 construct: skeletal SR vesicles were isolated from the back and leg muscles of mature female New Zealand white rabbits; from tissue; host or cells: rabbit back and leg skeletal muscle, sarcoplasmic reticulum vesicles
# T1 sequence (P11716 whole entry): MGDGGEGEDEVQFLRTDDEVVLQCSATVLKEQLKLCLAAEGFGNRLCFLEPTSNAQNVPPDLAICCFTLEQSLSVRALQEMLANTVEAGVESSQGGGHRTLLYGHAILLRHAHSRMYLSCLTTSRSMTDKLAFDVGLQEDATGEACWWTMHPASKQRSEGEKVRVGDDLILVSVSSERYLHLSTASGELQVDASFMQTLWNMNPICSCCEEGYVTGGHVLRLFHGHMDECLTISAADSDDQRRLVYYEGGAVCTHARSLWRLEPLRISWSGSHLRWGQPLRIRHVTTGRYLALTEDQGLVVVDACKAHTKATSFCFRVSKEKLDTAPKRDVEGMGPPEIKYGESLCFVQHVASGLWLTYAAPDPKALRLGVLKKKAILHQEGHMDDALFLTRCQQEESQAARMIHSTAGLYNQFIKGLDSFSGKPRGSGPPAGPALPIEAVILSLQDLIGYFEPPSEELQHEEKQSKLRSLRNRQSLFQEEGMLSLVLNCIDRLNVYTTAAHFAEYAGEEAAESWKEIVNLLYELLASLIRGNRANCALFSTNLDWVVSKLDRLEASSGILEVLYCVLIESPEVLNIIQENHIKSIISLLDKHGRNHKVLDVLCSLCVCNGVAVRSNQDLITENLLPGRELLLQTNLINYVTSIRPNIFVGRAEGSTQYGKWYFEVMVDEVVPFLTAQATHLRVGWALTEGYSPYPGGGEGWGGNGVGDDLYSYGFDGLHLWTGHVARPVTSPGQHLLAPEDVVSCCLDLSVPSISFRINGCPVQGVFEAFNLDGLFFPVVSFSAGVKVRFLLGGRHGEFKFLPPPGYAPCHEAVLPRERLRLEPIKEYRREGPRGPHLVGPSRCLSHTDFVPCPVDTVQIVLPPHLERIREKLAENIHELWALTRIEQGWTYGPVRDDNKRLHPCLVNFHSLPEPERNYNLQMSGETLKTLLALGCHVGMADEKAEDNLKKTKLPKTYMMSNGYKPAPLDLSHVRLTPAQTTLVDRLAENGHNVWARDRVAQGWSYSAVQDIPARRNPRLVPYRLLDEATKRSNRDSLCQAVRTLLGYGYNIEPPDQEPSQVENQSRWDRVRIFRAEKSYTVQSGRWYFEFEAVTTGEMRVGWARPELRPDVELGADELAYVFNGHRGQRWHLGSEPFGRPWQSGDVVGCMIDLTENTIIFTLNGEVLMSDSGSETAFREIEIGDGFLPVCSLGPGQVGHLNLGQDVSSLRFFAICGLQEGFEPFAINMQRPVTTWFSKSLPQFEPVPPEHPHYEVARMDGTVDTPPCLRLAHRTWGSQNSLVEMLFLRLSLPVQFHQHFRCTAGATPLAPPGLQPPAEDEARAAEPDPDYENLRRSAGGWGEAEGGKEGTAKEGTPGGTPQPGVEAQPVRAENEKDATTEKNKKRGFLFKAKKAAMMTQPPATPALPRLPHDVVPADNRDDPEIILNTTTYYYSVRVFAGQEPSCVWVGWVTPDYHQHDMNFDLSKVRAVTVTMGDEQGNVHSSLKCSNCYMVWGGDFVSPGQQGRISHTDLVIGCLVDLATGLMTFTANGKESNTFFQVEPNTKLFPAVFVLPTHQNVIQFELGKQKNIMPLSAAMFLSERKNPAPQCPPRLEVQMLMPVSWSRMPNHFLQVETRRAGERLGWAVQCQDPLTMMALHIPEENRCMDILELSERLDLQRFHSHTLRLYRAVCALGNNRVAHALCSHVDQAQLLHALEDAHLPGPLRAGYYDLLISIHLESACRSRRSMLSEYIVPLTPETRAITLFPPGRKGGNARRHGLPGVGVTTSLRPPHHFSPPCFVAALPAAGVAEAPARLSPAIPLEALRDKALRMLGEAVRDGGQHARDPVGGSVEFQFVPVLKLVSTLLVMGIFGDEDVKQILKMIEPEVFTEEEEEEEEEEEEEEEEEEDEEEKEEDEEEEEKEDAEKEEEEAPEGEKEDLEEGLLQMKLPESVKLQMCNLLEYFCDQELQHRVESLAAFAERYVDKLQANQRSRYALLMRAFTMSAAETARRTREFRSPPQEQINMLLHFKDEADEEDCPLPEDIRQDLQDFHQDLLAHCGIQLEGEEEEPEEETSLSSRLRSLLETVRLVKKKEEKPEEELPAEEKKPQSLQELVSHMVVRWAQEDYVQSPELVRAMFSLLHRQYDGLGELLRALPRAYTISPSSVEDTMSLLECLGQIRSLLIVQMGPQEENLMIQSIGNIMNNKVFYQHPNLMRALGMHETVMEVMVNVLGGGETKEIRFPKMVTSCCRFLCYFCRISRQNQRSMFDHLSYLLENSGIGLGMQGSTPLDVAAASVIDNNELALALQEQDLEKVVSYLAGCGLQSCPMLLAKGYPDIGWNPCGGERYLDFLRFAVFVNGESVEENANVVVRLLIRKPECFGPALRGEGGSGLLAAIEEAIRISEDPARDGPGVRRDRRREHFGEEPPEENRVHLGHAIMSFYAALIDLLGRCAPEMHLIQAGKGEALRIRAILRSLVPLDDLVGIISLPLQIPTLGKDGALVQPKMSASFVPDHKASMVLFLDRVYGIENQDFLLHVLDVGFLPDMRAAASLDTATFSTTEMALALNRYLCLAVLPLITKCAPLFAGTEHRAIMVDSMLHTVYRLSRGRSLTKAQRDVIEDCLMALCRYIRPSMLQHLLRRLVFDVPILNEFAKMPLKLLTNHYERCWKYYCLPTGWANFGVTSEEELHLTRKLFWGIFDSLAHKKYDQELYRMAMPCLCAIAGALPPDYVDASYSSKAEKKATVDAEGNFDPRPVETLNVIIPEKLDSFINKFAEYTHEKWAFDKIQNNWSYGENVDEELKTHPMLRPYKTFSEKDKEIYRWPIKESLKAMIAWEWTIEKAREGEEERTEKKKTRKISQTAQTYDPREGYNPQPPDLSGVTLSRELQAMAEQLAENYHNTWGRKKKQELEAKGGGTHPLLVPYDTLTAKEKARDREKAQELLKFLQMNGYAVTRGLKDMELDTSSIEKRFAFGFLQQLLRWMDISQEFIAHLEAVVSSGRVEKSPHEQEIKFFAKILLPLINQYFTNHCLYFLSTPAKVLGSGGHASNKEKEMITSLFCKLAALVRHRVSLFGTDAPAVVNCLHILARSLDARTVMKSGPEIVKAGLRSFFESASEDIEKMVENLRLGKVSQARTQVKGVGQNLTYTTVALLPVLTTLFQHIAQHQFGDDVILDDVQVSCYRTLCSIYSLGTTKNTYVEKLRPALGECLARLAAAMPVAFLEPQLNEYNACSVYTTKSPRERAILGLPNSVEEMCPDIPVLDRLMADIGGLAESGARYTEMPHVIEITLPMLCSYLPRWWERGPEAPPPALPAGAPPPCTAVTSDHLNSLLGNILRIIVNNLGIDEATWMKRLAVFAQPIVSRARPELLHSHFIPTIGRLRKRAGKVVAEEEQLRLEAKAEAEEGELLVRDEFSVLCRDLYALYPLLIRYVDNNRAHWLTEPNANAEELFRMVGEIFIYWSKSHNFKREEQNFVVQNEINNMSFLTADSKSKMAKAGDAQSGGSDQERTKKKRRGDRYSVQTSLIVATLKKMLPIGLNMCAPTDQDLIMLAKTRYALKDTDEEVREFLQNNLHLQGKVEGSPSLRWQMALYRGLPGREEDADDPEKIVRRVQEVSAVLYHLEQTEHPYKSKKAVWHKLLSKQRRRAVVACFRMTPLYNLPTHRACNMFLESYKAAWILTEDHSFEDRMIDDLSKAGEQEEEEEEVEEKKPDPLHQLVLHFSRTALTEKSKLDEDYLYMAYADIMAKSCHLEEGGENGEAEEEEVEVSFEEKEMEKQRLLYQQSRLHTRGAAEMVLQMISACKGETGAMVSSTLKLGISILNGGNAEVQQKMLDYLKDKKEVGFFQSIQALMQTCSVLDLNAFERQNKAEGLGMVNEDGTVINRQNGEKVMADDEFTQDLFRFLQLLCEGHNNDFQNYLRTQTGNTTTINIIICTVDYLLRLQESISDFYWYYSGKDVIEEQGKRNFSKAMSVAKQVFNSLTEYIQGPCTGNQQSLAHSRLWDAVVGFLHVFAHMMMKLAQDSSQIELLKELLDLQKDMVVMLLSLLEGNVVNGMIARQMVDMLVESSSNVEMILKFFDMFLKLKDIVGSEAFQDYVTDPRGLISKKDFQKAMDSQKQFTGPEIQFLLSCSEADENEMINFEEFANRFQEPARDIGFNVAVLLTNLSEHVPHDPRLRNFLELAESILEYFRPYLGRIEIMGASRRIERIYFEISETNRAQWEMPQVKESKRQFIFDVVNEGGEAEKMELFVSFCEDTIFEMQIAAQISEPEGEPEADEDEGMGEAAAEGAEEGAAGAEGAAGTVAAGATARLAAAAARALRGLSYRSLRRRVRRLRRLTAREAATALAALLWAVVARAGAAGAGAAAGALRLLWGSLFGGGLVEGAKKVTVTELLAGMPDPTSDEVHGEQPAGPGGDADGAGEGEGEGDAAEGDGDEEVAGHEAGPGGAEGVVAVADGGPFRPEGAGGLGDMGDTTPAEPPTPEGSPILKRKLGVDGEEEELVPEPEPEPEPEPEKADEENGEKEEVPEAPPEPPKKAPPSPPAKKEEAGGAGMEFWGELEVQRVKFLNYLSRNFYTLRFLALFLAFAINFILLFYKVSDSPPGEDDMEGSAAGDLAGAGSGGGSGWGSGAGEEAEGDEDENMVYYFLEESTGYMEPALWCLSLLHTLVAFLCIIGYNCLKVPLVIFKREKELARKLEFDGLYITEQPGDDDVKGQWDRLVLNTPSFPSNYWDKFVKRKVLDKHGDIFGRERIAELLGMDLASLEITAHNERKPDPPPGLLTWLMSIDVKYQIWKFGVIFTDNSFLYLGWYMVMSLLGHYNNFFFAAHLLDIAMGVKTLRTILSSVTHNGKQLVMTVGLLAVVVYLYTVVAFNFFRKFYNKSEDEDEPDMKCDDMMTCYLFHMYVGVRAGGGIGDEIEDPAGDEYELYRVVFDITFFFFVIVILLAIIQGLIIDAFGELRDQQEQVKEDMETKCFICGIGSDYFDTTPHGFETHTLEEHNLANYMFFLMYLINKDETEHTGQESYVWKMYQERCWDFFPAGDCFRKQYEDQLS
# Experimental: Cardiac SR was prepared from mature female crossbred sheep hearts, and skeletal SR vesicles were isolated from the back and leg muscles of mature female New Zealand white rabbits[29],[54] with approval from the ANU Animal Experiment Ethics Committee Protocol Number A2015/35. […] Solutions for vesicle incorporation contained (mM): cis 230 caesium methanesulfonate (CsMS); 20 CsCl; 1 CaCl2 and 10 […] (TES) pH 7.4 and trans 30 CsMS; 20 CsCl; 1 CaCl2 10 TES; pH 7.4. SR vesicles routinely incorporated with the cytoplasmic surface of the SR and RyR facing the cis chamber. Following incorporation, 200 mM CsMS was added to the trans solution and the cis solution exchanged with recording solution containing (mM): 230 CsMS; 20 CsCl; 0.001 CaCl2;10 TES and pH 7.4, with [Ca^2+] set by a [BAPTA] determined using a Ca^2+ electrode. […] Electrophysiology experiments were analysed using Channel 2 (P.W. Gage, M. Smith, Australian National University) and Channel 3 (N.W. Laver, University of Newcastle, Australia) software, available from the authors upon request. […] Following most incorporation events, a single channel only was active in the bilayer and channel open probability (Po), mean open time (To), mean closed time (Tc) and open event frequency (Fo) were measured. […] In all experiments control channel activity was recorded for 3 to 5 min before exposure to the test compound. […]
# NaV1.2 = experiment: FLIPR Ca2+ assay, inhibition of endogenous NaV1.2; format: cell-based, human; settings: for Ca2+ response relative to control response: 3 µM Xt3a pre-treatment, veratridine 70 μM, over 300 s
# Experimental: (§1) SH-SY5Y human neuroblastoma cells (European Collection of Authenticated Cell Culture, Sigma Aldrich, 94030304-1VL) were cultured in RPMI media (ThermoFisher Scientific, Scoresby, Australia) supplemented with 15% foetal bovine serum and L-glutamine (1 mM) and passaged at approximately 80% confluency with TrypLE Express (Thermo Fisher, Australia). For fluorescence imaging, cells were plated on CellBIND (Corning) 384-well black-walled imaging plates at a density of 20,000–30,000 cells/well in complete media and cultured for 48 h at 37 °C/5% CO2.
# (§2) Briefly, SH-SY5Y cells were loaded with Calcium 4 no-wash dye (Molecular Devices) diluted in physiological salt solution (composition in mM: NaCl 140, D-glucose 11.5, KCl 5.9, MgCl2 1.4, NaH2PO4 1.2, NaHCO3 5, CaCl2 1.8, HEPES 10) for 30 min at 37 °C. A two-addition FLIPR^Tetra (Molecular Devices) protocol using the following settings was used to measure fluorescence responses: excitation 470–495 nm; emission 515–575 nm; excitation intensity 80%; excitation duration 0.8 s; gain 140; read interval 1/s; read number 300/addition. Responses mediated via endogenously expressed ion channels were elicited by addition of: choline (30 μM)/PNU-120596 (10 μM) for α7 nAChR-mediated responses; nicotine (30 μM) for α3β2/α3β4 nAChR-mediated responses; KCl (90 mM)/CaCl2 (5 mM) for CaV1.3-mediated responses; KCl (90 mM)/CaCl2 (5 mM) + nifedipine (10 μM) for CaV2.2-mediated responses; vertridine (70 μM) for NaV1.2-mediated responses; and veratridine (4 μM)/OD1 (300 nM) for NaV1.7-mediated responses. Raw fluorescence readings were converted to response over baseline using the analysis tool Screenworks 3.1.1.4 (Molecular Devices) and were expressed relative to the maximum increase in fluorescence of control responses and plotted using GraphPad Prism 9.3.1.
# (§3) In the cell-based FLIPR assays statistical analysis was performed using GraphPad Prism 9.3.1. Statistical significance was defined as p < 0.05, and determined by one-sample t-test assessing difference to the control value of 100%. In α7 nAChR, α3-containing nAChR, CaV1.3, CaV2.2, NaV1.2 and NaV1.7 channels (Supplementary Fig. 5B), with distribution (t) and degrees of freedom (df) being: t = 0.9683, df = 2 (α7); t = 1.338, df = 2 (α3); t = 1.775, df = 2 (NaV1.2); t = 1.478
# CaV2.2 = experiment: FLIPR Ca2+ assay, inhibition of endogenous CaV2.2; format: cell-based, human; settings: for Ca2+ response relative to control response: 3 µM Xt3a pre-treatment, KCl 90 mM/CaCl2 5 mM + nifedipine 10 μM, over 300 s
# Experimental: as §1, §2, §3
substance,measurement,setting,value
φ-Xibalbin3-Xt3a,reversibility on washout,"RyR1; 100 pM, 10 nM and 1 μM, early (2 to 3 min) and late (15 to 23 min) after washout",no significant washout of Xt3a effect was observed; also recorded: persistent activity after washout in our single-channel recordings for as long as the bilayers lasted
same,sub-state activity during washout,RyR1; maintained for as long as the bilayer lasted,sub-state activity increased during the washout period
same,Ca2+ response relative to control response,NaV1.2; replicate 1,91.9349%
same,Ca2+ response relative to control response,NaV1.2; replicate 2,100.571%
same,Ca2+ response relative to control response,NaV1.2; replicate 3,88.9832%
same,inhibition of Ca2+ responses,NaV1.2; Xt3a 3 µM,did not inhibit Ca^2+ responses
same,Ca2+ response relative to control response,CaV2.2; replicate 1,99.2207%
same,Ca2+ response relative to control response,CaV2.2; replicate 2,92.2928%
same,Ca2+ response relative to control response,CaV2.2; replicate 3,79.9392%
same,inhibition of Ca2+ responses,CaV2.2; Xt3a 3 µM,did not inhibit Ca^2+ responses
